Assay results: patent publication US8551996B2, “Compounds, compositions, methods of synthesis, and methods of treatment” (Emory University, priority 2009, dated 2013)

Target: T1, CRF-1 receptor (Homo sapiens, UniProt P34998)
T1 construct: expressed in transfected cells; host or cells: HEK293T/17
T1 sequence (P34998 24-415): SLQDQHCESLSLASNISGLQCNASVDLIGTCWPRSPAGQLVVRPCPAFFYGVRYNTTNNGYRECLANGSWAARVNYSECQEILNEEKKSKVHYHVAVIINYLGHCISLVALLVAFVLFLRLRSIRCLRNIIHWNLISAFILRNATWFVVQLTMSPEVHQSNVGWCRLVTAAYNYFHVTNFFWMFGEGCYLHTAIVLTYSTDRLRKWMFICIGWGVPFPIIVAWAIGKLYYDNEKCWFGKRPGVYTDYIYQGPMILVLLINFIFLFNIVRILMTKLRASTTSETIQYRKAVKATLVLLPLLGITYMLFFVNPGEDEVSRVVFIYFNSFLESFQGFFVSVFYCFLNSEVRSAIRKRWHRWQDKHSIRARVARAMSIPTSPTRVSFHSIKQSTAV
Assay: CRF-1 receptor competitive binding vs. [125I]sauvagine
Settings: for Ki: transfected HEK293T/17 cells expressing the CRF-1 receptor, radioligand [125I]sauvagine, read-out: CRF-1 Receptor Binding Affinities (vs. [125I] Sauvagine) Ki; for affinity for the CRF-1 receptor (in words): vs. [125I]sauvagine, only slightly reduced from that found for R121919
Source text: Pyrido[2,3-b]pyrazin-2-ones of type VI (Table 1) were synthesized according to the procedure reported by Dzierba, et al., (J. Med. Chem. 2004, 47, 5783-5790) as shown in Scheme 21.

Structure (SMILES): CCCCN(CC)c1cc(C)nc2c1NC(=O)CN2c1ccc(C)cc1Br [Compound 185, 4-(2-Bromo-4-methylphenyl)-8-(butylethylamino)-6-methyl-3,4-dihydra-1H-pyrido[2,3-b]pyrazin-2-one]
- Ki: 6.2 ± 1.4 nM
- affinity for the CRF-1 receptor (in words): high affinity

Structure (SMILES): CCCCN(CC)c1cc(C)nc2c1NC(=O)CN2c1ccc(Br)cc1C [Compound 188, 8-(Butylethylamino)-4-(2-methyl-4-bromophenyl)-6-methyl-3,4-dihydro-1H-pyrido[2,3-b]pyrazin-2-one]
- Ki: 5.7 ± 0.3 nM
- affinity for the CRF-1 receptor (in words): high affinity

Structure (SMILES): CCCCN(CC)c1cc(C)nc2c1NC(=O)CN2c1ccc(C)cc1C [Compound 191, 8-(Butylethylamino)-4-(2,4-dimethylphenyl)-6-methyl-3,4-dihydro-1H-pyrido[2,3-b]pyrazin-2-one]
- Ki: 9.1 nM
- affinity for the CRF-1 receptor (in words): high affinity
